One series concerns the target T1, TLR9 (Homo sapiens, UniProt Q9NR96).
T1 sequence (Q9NR96 26-1032): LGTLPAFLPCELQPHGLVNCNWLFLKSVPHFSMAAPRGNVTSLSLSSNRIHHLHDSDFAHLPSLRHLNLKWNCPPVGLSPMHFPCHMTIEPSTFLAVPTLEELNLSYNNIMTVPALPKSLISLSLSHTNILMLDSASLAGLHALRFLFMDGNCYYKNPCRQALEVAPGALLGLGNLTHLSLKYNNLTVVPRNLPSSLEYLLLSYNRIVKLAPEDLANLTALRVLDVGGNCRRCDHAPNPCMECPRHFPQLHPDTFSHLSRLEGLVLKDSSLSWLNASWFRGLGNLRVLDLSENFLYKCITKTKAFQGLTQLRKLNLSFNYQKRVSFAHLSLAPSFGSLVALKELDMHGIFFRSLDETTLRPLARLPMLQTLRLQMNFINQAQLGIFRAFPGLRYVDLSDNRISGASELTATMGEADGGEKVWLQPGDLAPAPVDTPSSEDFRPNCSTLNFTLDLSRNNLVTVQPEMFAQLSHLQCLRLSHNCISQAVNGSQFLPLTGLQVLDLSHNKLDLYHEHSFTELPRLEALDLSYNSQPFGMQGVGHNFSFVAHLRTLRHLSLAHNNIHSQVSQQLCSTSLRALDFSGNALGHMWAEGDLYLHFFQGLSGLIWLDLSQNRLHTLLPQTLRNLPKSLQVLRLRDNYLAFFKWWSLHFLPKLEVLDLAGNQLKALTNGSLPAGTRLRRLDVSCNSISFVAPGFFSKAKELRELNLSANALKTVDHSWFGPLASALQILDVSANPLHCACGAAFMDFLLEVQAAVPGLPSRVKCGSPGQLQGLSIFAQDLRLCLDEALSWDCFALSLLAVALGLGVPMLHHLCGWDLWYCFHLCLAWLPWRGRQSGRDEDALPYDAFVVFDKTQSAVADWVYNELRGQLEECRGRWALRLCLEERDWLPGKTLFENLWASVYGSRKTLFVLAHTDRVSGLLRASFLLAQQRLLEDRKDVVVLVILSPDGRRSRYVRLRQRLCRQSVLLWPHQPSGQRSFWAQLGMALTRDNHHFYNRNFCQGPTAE
The series is described as follows: Human PBMC cell-based assay. On the set-up: endogenous in cells; host or cells: human PBMC from healthy donor whole blood. The conditions noted are these: CpG ODN 2216 stimulation, overnight, cytokine readout, read-out: hPBMC/TLR9 IC50. The source says:
Human PBMC Cell-Based Assay
Unlike the HEK reporter cell lines, human peripheral blood mononuclear cell (PBMC) represents primary human immune cells in blood mainly consisting of lymphocytes, monocytes, and dendritic cells. These cells express TLR7, TLR8, or TLR9, and therefore are natural responders to respective ligand stimulation. Upon activation of these TLRs, PBMCs secrete similar cytokines and chemokines in vitro and in vivo, and therefore the in vitro potency of a TLR7/8/9 antagonist in human PBMC is readily translatable to its pharmacodynamics response in vivo.
Human peripheral blood mononuclear cells (PBMC) were isolated from freshly-drawn lithium-heparinized (Lithium Heparin Plus blood Collection tube, BD Vacutainer®) healthy donor whole blood by density gradient (Ficoll-Paque™ PLUS, GE Healthcare life Sciences). Briefly, […] was diluted with 25 mL PBS (without Ca^2+, Mg^2+) in a 50 mL conical tube with porous barrier (Leucosep tube, Greiner bio-one), where 15.5 mL Ficoll-Paque was under laid after spinning. Tubes were centrifuged for 20 minutes at 800×g (1946 rpm) with the brake in the off position, and PBMC were collected from the buffy coat. Cells were then washed twice in PBS, and red blood cells were lysed by suspension in 2 mL (Red Blood Cell Lysis Buffer, Alfa Aesar) for 5-10 minutes at room temperature. After a final wash in PBS, PBMC were resuspended at a final concentration of 2×10^6 cells/mL in RPMI-1640 media with GlutaMAX™ (Gibco) supplemented with 10% Fetal Bovine Serum (Sigma) and plated at 150 μL/well (3×10^5 cells/well) in tissue culture treated round bottom 96-well plates (Corning Incorporated). Antagonist compounds (compounds of this invention) solubilized and serial diluted in 100% DMSO were added in duplicate to cells to yield a final concentration of 1% DMSO (v/v). PBMC were incubated with antagonist compounds for 30 minutes at 37° C., 5% CO2 before adding various TLR agonist reagents in 48 μL complete media per well as follows (final concentrations indicated): CpG ODN 2216 (InvivoGen) at […] for TLR9, ORN 06/LyoVec (InvivoGen) at 1 μg/mL for TLR8 and R848 (InvivoGen) at 1 μg/mL for TLR7 and TLR8. PBMC were incubated overnight at 37° C. with 5% CO2. Cell culture supernatants were collected, and levels of various human cytokines were assessed by Luminex assay (ProcartaPlex™ Multiplex Immunoassay, Invitrogen) or ELISA procedure according to the manufacturer's recommended protocol (eBioscience, ThermoFisher Scientific). Viability of the cells was also checked with Cell Viability Assay (CellTiter Glo® Luminescent Cell Viability Assay, Promega).

A short description of series [1]: Human microsome stability assay. Format: in vitro ADME. The conditions noted are these: 1 μM test compound, 0.5 mg/mL liver microsomal protein, 37° C., up to 30 minutes; 6.2 = detection limit. How it is done:
Human Microsome Stability Assay
The human microsomal stability assay is used for early assessment of metabolic stability of a test compound in human liver microsomes.
Human liver microsomes (Cat. NO.: 452117, Corning, USA; Cat. NO.:H2610, Xenotech, USA) were preincubated with test compound for 10 minutes at 37° C. in 100 mM potassium phosphate buffer, pH 7.4. The reactions were initiated by adding NADPH regenerating system. The final incubation mixtures contained 1 μM test compound, 0.5 mg/mL liver microsomal protein, 1 mM MgCl2, 1 mM NADP, 1 unit/mL isocitric dehydrogenase and 6 mM isocitric acid in 100 mM potassium phosphate buffer, pH 7.4. After incubation times of 0, 3, 6, 9, 15 and 30 minutes at 37° C., 300 μL of cold acetonitrile (including internal standard) was added to 100 μL incubation mixture to terminate the reaction. Following precipitation and centrifugation, the amount of compound remaining in the samples were determined by LC-MS/MS. Controls of no NADPH regenerating system at zero and 30 minutes were also prepared and analyzed.
A general note: Liver microsomes are a subcellular fraction often used to study metabolism.

Consider 14 compounds from patent US20210300924A1, “5-[6-[[3-(4,5,6,7-TETRAHYDROPYRAZOLO[4,3-C]PYRIDIN-1-YL)AZETIDIN-1-YL]METHYL]MORPHOLIN-4-YL]QUINOLINE-8-CARBONITRILE DERIVATIVES AND SIMILAR COMPOUNDS AS TLR7-9 ANTAGONISTS FOR TREATING SYSTEMIC LUPUS ERYTHEMATOSUS” (Hoffmann-La Roche Inc., priority 2018, published 2021).

Marks after values point to notes of the source that are not given here.

With `C[C@@H]1CN(c2ccc(C#N)c3ncccc23)C[C@H](CN2CC(n3cc4c(n3)CNCC4)C2)O1` [Example 4, 5-[(2R,6S)-2-methyl-6-[[3-(4,5,6,7-tetrahydropyrazolo[3,4-c]pyridin-2-yl)azetidin-1-yl]methyl]morpholin-4-yl]quinoline-8-carbonitrile], at TLR9, the IC50 was 0.198 µM. Also, the “Clearance of Human microsome” value in series [1] amounted to 6.2 mL/min/kg. The like results for `C[C@@H]1CN(c2ccc(C#N)c3ncccc23)C[C@H](CN2CC(n3cc4c(n3)CN[C@@H](C)C4)C2)O1` (single isomer, unassigned) [Example 29] were, in that order, 0.115 µM and 6.6 mL/min/kg. Taken in the same sequence, the figures for `C[C@@H]1Cc2nn(C3CN(C[C@H]4CN(c5ccc(C#N)c6ncccc56)C[C@@H](C)O4)C3)cc2CN1` [Example 17, 5-[(2R,6S)-2-methyl-6-[[3-[(6R)-6-methyl-4,5,6,7-tetrahydropyrazolo[4,3-c]pyridin-2-yl]azetidin-1-yl]methyl]morpholin-4-yl]quinoline-8-carbonitrile] were 0.113 µM and 6.2 mL/min/kg. Consider `C[C@@H]1CN(c2ccc(C#N)c3ncccc23)C[C@H](CN2CC(n3cc4c(n3)CN(C)CC4)C2)O1` [Example 5, 5-[(2R,6S)-2-methyl-6-[[3-(6-methyl-5,7-dihydro-4H-pyrazolo[3,4-c]pyridin-2-yl)azetidin-1-yl]methyl]morpholin-4-yl]quinoline-8-carbonitrile], for which, at TLR9, the IC50 amounted to 0.318 µM. Moreover, the “Clearance of Human microsome” value in series [1] is reported as 6.2 mL/min/kg. With `C[C@@H]1Cc2cnn(C3CN(C[C@H]4CN(c5ccc(C#N)c6ncccc56)C[C@@H](C)O4)C3)c2CN1` (single isomer, unassigned) [Example 28], on TLR9, the IC50 was 0.214 µM. In series [1], the “Clearance of Human microsome” value was 6.2 mL/min/kg.

Regarding `C[C@@H]1CN(c2ccc(C#N)c3ncccc23)C[C@H](CN2CC(n3cc4c(n3)CCN[C@@H]4C)C2)O1` [Example 21, 5-[(2R,6S)-2-methyl-6-[[3-[(4R)-4-methyl-4,5,6,7-tetrahydropyrazolo[4,3-c]pyridin-2-yl]azetidin-1-yl]methyl]morpholin-4-yl]quinoline-8-carbonitrile], the IC50 at TLR9 was determined as 0.092 µM. The “Clearance of Human microsome” value in series [1] came to 6.2 mL/min/kg. With `C[C@@H]1CN(c2ccc(C#N)c3ncccc23)C[C@H](CN2CC(n3ncc4c3CCN[C@@H]4C)C2)O1` [Example 20, 5-[(2R,6S)-2-methyl-6-[[3-[(4R)-4-methyl-4,5,6,7-tetrahydropyrazolo[4,3-c]pyridin-1-yl]azetidin-1-yl]methyl]morpholin-4-yl]quinoline-8-carbonitrile], the IC50 at TLR9 was 0.097 µM. In addition, the “Clearance of Human microsome” value in series [1] is 6.2 mL/min/kg. On to `C[C@@H]1CN(c2ccc(C#N)c3ncccc23)C[C@H](CN2CC(n3cc4c(n3)CCN[C@H]4C)C2)O1` [Example 23, 5-[(2R,6S)-2-methyl-6-[[3-[(4S)-4-methyl-4,5,6,7-tetrahydropyrazolo[4,3-c]pyridin-2-yl]azetidin-1-yl]methyl]morpholin-4-yl]quinoline-8-carbonitrile], for which the IC50 at TLR9 was determined as 0.143 µM. Besides, the “Clearance of Human microsome” value in series [1] was 6.2 mL/min/kg. Taken in the same sequence, the figures for `C[C@@H]1CN(c2ccc(C#N)c3ncccc23)C[C@H](CN2CC(n3cc4c(n3)[C@H](C)NCC4)C2)O1` (single isomer, unassigned) [Example 34] were 0.202 µM and 6.4 mL/min/kg.

As to `C[C@@H]1Cc2c(cnn2C2CN(C[C@H]3CN(c4ccc(C#N)c5ncccc45)C[C@@H](C)O3)C2)CN1` [Example 16, 5-[(2R,6S)-2-methyl-6-[[3-[(6R)-6-methyl-4,5,6,7-tetrahydropyrazolo[4,3-c]pyridin-1-yl]azetidin-1-yl]methyl]morpholin-4-yl]quinoline-8-carbonitrile], at TLR9, the IC50 amounted to 0.084 µM. Besides, the “Clearance of Human microsome” value in series [1] was 7.2 mL/min/kg. Consider `C[C@@H]1Cc2cn(C3CN(C[C@H]4CN(c5ccc(C#N)c6ncccc56)C[C@@H](C)O4)C3)nc2CN1` (single isomer, unassigned) [Example 30], for which the IC50 on TLR9 turned out to be 0.162 µM. The “Clearance of Human microsome” value in series [1] turned out to be 6.2 mL/min/kg. Take `C[C@@H]1CN(c2ccc(C#N)c3ncccc23)C[C@H](CN2CC(n3ncc4c3CCNC4)C2)O1` [Example 1, 5-[(2R,6S)-2-methyl-6-[[3-(4,5,6,7-tetrahydropyrazolo[4,3-c]pyridin-1-yl)azetidin-1-yl]methyl]morpholin-4-yl]quinoline-8-carbonitrile]: the “Clearance of Human microsome” value in series [1] was 6.2* mL/min/kg.

Consider `C[C@@H]1CN(c2ccc(C#N)c3ncccc23)C[C@H](CN2CC(n3cc4c(n3)CNC4)C2)O1` [Example 11, 5-[(2S,6R)-2-[[3-(5,6-dihydro-4H-pyrrolo[3,4-c]pyrazol-2-yl)azetidin-1-yl]methyl]-6-methyl-morpholin-4-yl]quinoline-8-carbonitrile], for which, in series [1], the “Clearance of Human microsome” value turned out to be 6.2 mL/min/kg.

With `C[C@@H]1CN(c2ccc(C#N)c3ncccc23)C[C@H](CN2CCC(n3cc4c(n3)CCNC4)CC2)O1` [Example 36, 5-[(2R,6S)-2-methyl-6-[[4-(4,5,6,7-tetrahydropyrazolo[4,3-c]pyridin-2-yl)-1-piperidyl]methyl]morpholin-4-yl]quinoline-8-carbonitrile], in series [1], the “Clearance of Human microsome” value came out at 6.2 mL/min/kg.
